Measurements as given in article PMC10749895, “ppGpp accumulation reduces the expression of the global nitrogen homeostasis-modulating NtcA regulon by affecting 2-oxoglutarate levels” (Communications Biology, 2023).

What was measured:
[1] = molecular target: T1, Synpcc7942_0903 (aconitase, ACN) (Synechococcus elongatus, UniProt Q31PT6); assay: aconitase activity, cis-aconitate formation at […] nm; type: biochemical; details: 0.25-10 µM ppGpp, 10 min preincubation; 1 mM citrate, 100 mM potassium phosphate pH 8.0, 30 °C, anaerobic; inhibitor
T1 construct: full-length gene in pET28a (NdeI/HindIII), N-terminal His6-tag, E. coli BL21-CodonPlus(DE3)-RIL, Ni column, purified anaerobically

[2] = molecular target: T1, Synpcc7942_0903 (aconitase, ACN); assay: as above; type: biochemical; details: 1 mM citrate, 100 mM potassium phosphate pH 8.0, 30 °C, anaerobic

Row | Compound | relative activity (% of activity without ppGpp) at maximum inhibition [1] | aconitase activity, cis-aconitate formation at 240 nm [2]
1 | Nc1nc2c(ncn2[C@@H]2O[C@H](COP(=O)(O)OP(=O)(O)O)[C@@H](OP(=O)(O)OP(=O)(O)O)[C@H]2O)c(=O)[nH]1 [ppGpp] | ~ 63 | –
2 | O=C(O)CC(O)(CC(=O)O)C(=O)O [citrate] | – | monitoring the formation of cis-aconitate in a reaction mixture containing
